Values of other authors, collected in patent US20200323830A1, “TREATMENT OF VIRAL HEMORRHAGIC FEVERS WITH ETORICOXIB” (priority 2019, published 2020).
Read-outs that look alike come from different tables or passages of the source.

What was measured:
[1] = biological target: T1, COX-1 activity in circulating platelets (Homo sapiens, UniProt P23219); conditions: therapeutic doses, healthy subjects
T1 construct: COX-1 activity in circulating platelets; endogenous in cells; host or cells: circulating platelets of healthy subjects
T1 sequence (P23219 24-599): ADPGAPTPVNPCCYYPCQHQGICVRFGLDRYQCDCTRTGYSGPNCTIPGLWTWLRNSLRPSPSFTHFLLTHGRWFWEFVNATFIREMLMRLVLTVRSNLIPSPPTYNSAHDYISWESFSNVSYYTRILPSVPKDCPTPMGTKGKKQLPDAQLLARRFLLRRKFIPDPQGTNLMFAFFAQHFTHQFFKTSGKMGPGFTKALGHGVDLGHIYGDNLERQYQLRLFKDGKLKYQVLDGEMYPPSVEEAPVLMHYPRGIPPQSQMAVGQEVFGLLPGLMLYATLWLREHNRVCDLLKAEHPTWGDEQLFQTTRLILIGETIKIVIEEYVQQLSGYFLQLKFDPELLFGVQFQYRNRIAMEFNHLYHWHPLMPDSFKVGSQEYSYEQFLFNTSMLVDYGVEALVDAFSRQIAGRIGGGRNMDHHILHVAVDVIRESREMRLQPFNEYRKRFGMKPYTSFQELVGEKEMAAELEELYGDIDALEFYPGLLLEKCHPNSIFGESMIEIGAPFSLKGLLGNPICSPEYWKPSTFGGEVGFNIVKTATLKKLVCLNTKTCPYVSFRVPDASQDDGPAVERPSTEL

[2] = versus placebo, acute pain after surgery
[3] = test system: platelet aggregation or bleeding time
[4] = in vivo
[5] = oral, once daily
[6] = for incidence of joint bleeding: 90 mg, hemophilic arthropathy
[7] = chronic use for up to one year
[8] = monkeys; similar to diclofenac and ibuprofen
[9] = humans; similar to diclofenac and ibuprofen
[10] = chronic therapy, 4 grams daily
[11] = not given; remark: listed apart in the source
[12] = dengue infection
[13] = dose of more than 60 mg/kg/day before admission, dengue subjects
[14] = intake within 24 h, dengue subjects

Q: For `Cc1ccc(-c2ncc(Cl)cc2-c2ccc(S(C)(=O)=O)cc2)cn1` [etoricoxib, 5-chloro-2-(6-methylpyridin-3-yl)-3-[4-(trideuteriomethylsulfonyl)phenyl]pyridine], which “effect on COX-1 activity in circulating platelets” value [1] is on record?
A: does not affect COX-1 activity in circulating platelets

Q: And the “fever AEs” value [2]?
A: fewer fever AEs than subjects on placebo

Q: And the “COX-2 versus COX-1 selectivity” value (COX-2 versus COX-1)?
A: 106 fold

Q: And the “effect on platelet aggregation or bleeding time” value ([3]; doses up to 500 mg)?
A: does not affect platelet aggregation or bleeding time

Q: What about the “effects on bleeding time or platelet aggregation” value ([3]; ex vivo whole-blood assays after multiple oral doses) of the same compound?
A: no important effects on bleeding time or platelet aggregation

Q: What about the “GI tolerability and safety events” value [4] of the same compound?
A: significant improvements

Q: And the half-life [5]?
A: approximately 22 hours

Q: What about the “median onset of action” value (acute pain settings) of the same compound?
A: 24 min

Q: And the risk of bleeding (acute pain studies)?
A: not associated with an increased risk of bleeding

Q: And the “duration of sustained efficacy” value (single dose)?
A: 24 h

Q: What about the “incidence of joint bleeding” value ([6]; 6-month extension) of the same compound?
A: 78.9%

Q: What about the “incidence of joint bleeding” value ([6]; 6-week portion) of the same compound?
A: 66.7%

Q: And the “serious AEs” value ([6]; placebo-controlled portion, two events, both on etoricoxib)?
A: 3.9%

Q: What about the “subjects with elevated ALT or AST (≥3 times the upper limit of normal)” value [7] of the same compound?
A: 1%

Q: What does the source list for `CS(=O)(=O)c1ccc(C2=C(c3ccccc3)C(=O)OC2)cc1` [rofecoxib]?
A: antipyretic activity [8]: antipyretic activity; antipyretic activity [9]: antipyretic activity

Q: Which “persons with peak serum aminotransferase values ≥3 times the upper normal limit” value [10] does the source give for `CC(=O)Nc1ccc(O)cc1` [acetaminophen/paracetamol] here?
A: 39%

Q: What about the “share of all cases of acute liver failure” value ([11]; academic centers of the Acute Liver Failure Study Group, 2005) of the same compound?
A: 42%

Q: And the “share of all cases of acute liver failure” value ([11]; population-based, metropolitan Atlanta, 2007)?
A: 41%

Q: And the transaminase elevation ([12]; median daily dose 1.5 g)?
A: caused transaminase elevation

Q: What about the “pain scores, analgesic intake, length of stay, duration of fever” value ([12]; versus placebo) of the same compound?
A: not significantly different from placebo

Q: What about the occurrence of hepatitis [13] of the same compound?
A: significantly associated with the occurrence of hepatitis

Q: And the transaminase elevation [14]?
A: significantly associated with transaminase elevation
